Test results published in patent publication EP0411395A2, “Use of ACE inhibitors for atherosclerosis-prophylaxis” (THERA PATENT-VERWALTUNGS-GmbH, priority 1989, dated 1991).

Test: Three-year placebo-controlled study in overweight persons: Doppler sonographic maximal blood flow velocity in the Arteria dorsalis pedis as parameter of atherosclerosis
Type: in vivo, Patienten
Details: for MAXIMALE BLUTSTRÖMUNGSGESCHWINDIGK.: 2 x 3 mg tgl. oral, Arteria dorsalis pedis
Description: Es wurden 122 übergewichtige Personen ausgesucht, die im Mittel 25 % Übergewicht hatten. Diese Patienten gaben nach Aufklärung ihr Einverständnis, an dieser Studie über 3 Jahre teilzunehmen. Sie hatten bereits 5 bis 10 Versuche einer Gewichtsabnahme hinter sich, die alle […] verlaufen waren. Ein Diabetes mellitus war nach der Definition des WHO-Reports (Techn. Rep. Ser. 646, 1 bis 80, 1980) bei diesen Patienten ausgeschlossen. Sie wurden in zwei gleich starke Gruppen eingeteilt, so daß nach Alter sowie Ausmaß und Dauer des Übergewichts kein Unterschied bestand. Die Patienten wurden in halbjährlichen Abständen ambulant kontrolliert. Wie zu Beginn wurden bei diesen Kontrollen folgende Blutwerte gemessen: Blutsenkung, Blutbild, Nüchternblutzucker, IGTT, Gewicht, Cholesterin und Triglyzeride, Serumglutamat-Oxalat-Transaminase (SGOT), Serumglutamat-Pyruvat-Transaminase (SGPT). Damit wurden den Stoffwechsel beeinträchtigende Krankheiten ausgeschlossen. Als Parameter der Atherosklerose wurde die dopplersonographisch bestimmte maximale Blutströmungsgeschwindigkeit in der Arteria dorsalis pedis verwendet. Alle Patienten hatten eine schmerzfreie Gehstrecke von über 200 m, die Arteria dorsalis pedis war gut tastbar. Oszillographisch fand sich kein Anhalt für eine Mediasklerose. Das Vorliegen einer Neuropathie wurde mit den üblichen klinischen Methoden ausgeschlossen.
Die erste Gruppe erhielt 2 x 3 mg Captopril täglich, die zweite Gruppe entsprechend Placebo. Die Patienten hatten die Auflage, keine den Stoffwechsel beeinträchtigenden Medikamente wie z.B. Diuretika, Betablocker oder dergleichen einzunehmen. In beiden Gruppen schieden über den Zeitraum von 3 Jahren 28 Patienten aus verschiedenen Gründen aus. Die Gruppen veränderten sich dadurch jedoch nicht so sehr, daß sie statistisch nicht mehr auswertbar gewesen wären. […] Die Ergebnisse des Versuchs sind in der nachstehenden Tabelle 1 dargestellt. Tabelle I

C[C@H](CS)C(=O)N1CCC[C@H]1C(=O)O [Captopril, 1-(2S)-3-Mercapto-2-methylpropionyl -L-prolin]
MAXIMALE BLUTSTRÖMUNGSGESCHWINDIGK. (1985 - 1 (start), Risikopatienten (Stoffwechselgesunde Übergewichtige), n=63): 13,6 ± 0,4 cm/s | MAXIMALE BLUTSTRÖMUNGSGESCHWINDIGK. (1986 - 2, Risikopatienten, n=60): 13,5 ± 0,3 cm/s | MAXIMALE BLUTSTRÖMUNGSGESCHWINDIGK. (1987 - 2, Risikopatienten, n=54): 13,4 ± 0,2 cm/s | MAXIMALE BLUTSTRÖMUNGSGESCHWINDIGK. (1988 - 1 (after 3 years), Risikopatienten, n=48): 13,5 ± 0,2 cm/s | Abfall der maximalen Blutströmungsgeschwindigkeit (nach 3 Jahren, versus Placebo, 2 x 3 mg Captopril täglich, p 0,05, Student's t-Test): signifikant geringerer Abfall
